Measured values from patent US20100254922A1, “COSMETIC AND/OR DERMATOLOGICAL COMPOSITION BASED ON N,N'-[…] ACID ESTER(S)” (L'OREAL, priority 2008, published 2010).

Experiment: Solubility test of the ester compound in test solvents
Format: physicochemical
Procedure: The solubility tests were performed with the diisopropyl ester of N,N′-bis(benzyl)ethylenediamine-N,N′-diacetic acid.
The test solvent was poured into a beaker, an amount of the ester compound was added with magnetic stirring and the mixture was left to stand for between 1 hour and 24 hours. The mixture was then heated to 50° C. and then cooled to room temperature (25° C.) over 24 hours. The system was then observed to see if the amount of the ester compound introduced recrystallized or remained dissolved.
The amount of ester compound that can be dissolved in the test solvent was determined in this manner. The maximum value corresponds to the amount at and above which the ester compound stops dissolving in the evaluated solvent.

Weight % of dissolved ester compound (solvent: 2-Ethylhexyl salicylate, 25° C.): 10 Weight %
Weight % of dissolved ester compound (solvent: 2-Octyldodecanol, 25° C.): 10 Weight %
Weight % of dissolved ester compound (solvent: Apricot oil, 25° C.): 12 Weight %
Weight % of dissolved ester compound (solvent: Butylene glycol, 25° C.): 1 Weight %
Weight % of dissolved ester compound (solvent: Cyclohexasiloxane, 25° C.): 4.7 Weight %
Weight % of dissolved ester compound (solvent: Cyclopentasiloxane, 25° C.): 4.5 Weight %
Weight % of dissolved ester compound (solvent: Dimethyl isosorbide, 25° C.): 38 Weight %
Weight % of dissolved ester compound (solvent: Dipropylene glycol, 25° C.): 10.7 Weight %
Weight % of dissolved ester compound (solvent: Ethanol, 25° C.): 8 Weight %
Weight % of dissolved ester compound (solvent: Glycerol, 25° C.): 1 Weight %
Weight % of dissolved ester compound (solvent: Hexylene glycol, 25° C.): 11.5 Weight %
Weight % of dissolved ester compound (solvent: Hydrogenated isoparaffin (Parleam from NOF), 25° C.): 9 Weight %
Weight % of dissolved ester compound (solvent: Isononyl isononanoate, 25° C.): 16 Weight %
Weight % of dissolved ester compound (solvent: Isopropyl N-lauroylsarcosinate (Eldew SL-205 from Ajinomoto), 25° C.): 18 Weight %
Weight % of dissolved ester compound (solvent: Isopropyl myristate, 25° C.): 11.5 Weight %
Weight % of dissolved ester compound (solvent: Isopropyl palmitate, 25° C.): 9 Weight %
Weight % of dissolved ester compound (solvent: Phenyl trimethicone (Dow Corning 556), 25° C.): 12 Weight %
Weight % of dissolved ester compound (solvent: Propylene glycol, 25° C.): 1 Weight %
Weight % of dissolved ester compound (solvent: Squalane, 25° C.): 9 Weight %
Weight % of dissolved ester compound (solvent: Water, heated to 50° C., cooled to room temperature (25° C.) over 24 hours): Insoluble
SMILES: CC(C)OC(=O)CN(CCN(CC(=O)OC(C)C)Cc1ccccc1)Cc1ccccc1 [diisopropyl ester of N,N′-bis(benzyl)ethylenediamine-N,N′-diacetic acid]
